Test results: patent publication US20220009920A1 (GB005, Inc., priority 2020, published 2022)

Tests used:
Assay in all cases: Large panel kinase profiling
Format in all cases: biochemical
Details in all cases: 1 μM test article, 1 mM ATP
CAMK1D = CAMK1D (Homo sapiens, UniProt Q8IU85)
In short: (§1)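 Continuous-read kinase assay: chelation-sensor peptide, 1 mM ATP, compound at 1 μM. Plates kept at 30° C.; fluorescence sampled at 1-min intervals (360/485 nm).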

ITK = molecular target: T1, ITK (Homo sapiens, UniProt Q08881)
T1 sequence (Q08881 1-620): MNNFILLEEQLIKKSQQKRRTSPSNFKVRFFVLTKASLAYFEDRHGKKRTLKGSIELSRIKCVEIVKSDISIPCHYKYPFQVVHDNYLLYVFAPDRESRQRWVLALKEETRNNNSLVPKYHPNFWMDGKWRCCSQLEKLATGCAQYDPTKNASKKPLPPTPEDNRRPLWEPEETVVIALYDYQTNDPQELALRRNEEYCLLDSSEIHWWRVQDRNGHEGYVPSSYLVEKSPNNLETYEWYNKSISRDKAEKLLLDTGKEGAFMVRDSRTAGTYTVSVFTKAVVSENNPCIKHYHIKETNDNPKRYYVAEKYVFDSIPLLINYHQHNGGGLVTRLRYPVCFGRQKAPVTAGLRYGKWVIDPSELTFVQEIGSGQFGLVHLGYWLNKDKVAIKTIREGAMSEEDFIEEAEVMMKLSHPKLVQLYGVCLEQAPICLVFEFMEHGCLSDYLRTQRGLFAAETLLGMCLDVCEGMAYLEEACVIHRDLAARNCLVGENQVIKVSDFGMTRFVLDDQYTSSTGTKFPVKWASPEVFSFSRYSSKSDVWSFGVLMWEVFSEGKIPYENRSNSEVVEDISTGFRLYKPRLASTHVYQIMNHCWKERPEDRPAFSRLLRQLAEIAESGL
In short: as §1

MAP4K3/GLK = molecular target: T2, MAP4K3/GLK (Homo sapiens, UniProt Q8IVH8)
T2 construct: AssayQuant Technologies, Inc. (service provider)
T2 sequence (Q8IVH8 1-894): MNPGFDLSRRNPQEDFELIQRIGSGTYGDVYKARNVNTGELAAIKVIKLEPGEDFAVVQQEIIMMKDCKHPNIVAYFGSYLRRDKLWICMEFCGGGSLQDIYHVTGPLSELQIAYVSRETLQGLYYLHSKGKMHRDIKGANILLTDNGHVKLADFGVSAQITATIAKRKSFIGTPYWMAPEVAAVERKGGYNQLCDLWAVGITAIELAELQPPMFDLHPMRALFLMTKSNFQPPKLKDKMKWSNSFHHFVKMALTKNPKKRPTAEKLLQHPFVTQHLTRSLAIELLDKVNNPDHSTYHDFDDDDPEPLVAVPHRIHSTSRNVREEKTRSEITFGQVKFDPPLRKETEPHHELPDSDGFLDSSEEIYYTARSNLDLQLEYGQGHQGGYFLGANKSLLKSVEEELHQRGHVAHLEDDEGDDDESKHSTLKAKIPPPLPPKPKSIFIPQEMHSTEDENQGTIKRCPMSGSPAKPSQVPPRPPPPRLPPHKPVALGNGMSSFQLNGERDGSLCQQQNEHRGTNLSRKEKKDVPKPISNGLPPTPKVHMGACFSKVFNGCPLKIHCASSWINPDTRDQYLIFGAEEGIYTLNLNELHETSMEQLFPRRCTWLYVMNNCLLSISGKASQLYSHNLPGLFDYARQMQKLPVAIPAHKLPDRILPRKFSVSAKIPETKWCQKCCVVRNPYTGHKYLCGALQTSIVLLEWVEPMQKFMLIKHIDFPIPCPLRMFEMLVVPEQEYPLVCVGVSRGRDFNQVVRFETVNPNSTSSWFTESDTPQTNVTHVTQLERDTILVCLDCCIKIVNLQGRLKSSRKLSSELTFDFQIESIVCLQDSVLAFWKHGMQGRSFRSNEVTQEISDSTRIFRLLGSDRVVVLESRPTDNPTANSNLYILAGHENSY
In short: as §1

PKN3 = PKN3 (Homo sapiens, UniProt Q6P5Z2)
In short: as §1

CAMKK2 = molecular target: T3, CAMKK2 (Homo sapiens, UniProt Q96RR4)
T3 construct: AssayQuant Technologies, Inc. (ran the panel)
In short: as §1

MASTL = molecular target: T4, MASTL (Homo sapiens, UniProt Q96GX5)
T4 construct: AssayQuant Technologies, Inc. (assay service)
T4 sequence (Q96GX5 1-879): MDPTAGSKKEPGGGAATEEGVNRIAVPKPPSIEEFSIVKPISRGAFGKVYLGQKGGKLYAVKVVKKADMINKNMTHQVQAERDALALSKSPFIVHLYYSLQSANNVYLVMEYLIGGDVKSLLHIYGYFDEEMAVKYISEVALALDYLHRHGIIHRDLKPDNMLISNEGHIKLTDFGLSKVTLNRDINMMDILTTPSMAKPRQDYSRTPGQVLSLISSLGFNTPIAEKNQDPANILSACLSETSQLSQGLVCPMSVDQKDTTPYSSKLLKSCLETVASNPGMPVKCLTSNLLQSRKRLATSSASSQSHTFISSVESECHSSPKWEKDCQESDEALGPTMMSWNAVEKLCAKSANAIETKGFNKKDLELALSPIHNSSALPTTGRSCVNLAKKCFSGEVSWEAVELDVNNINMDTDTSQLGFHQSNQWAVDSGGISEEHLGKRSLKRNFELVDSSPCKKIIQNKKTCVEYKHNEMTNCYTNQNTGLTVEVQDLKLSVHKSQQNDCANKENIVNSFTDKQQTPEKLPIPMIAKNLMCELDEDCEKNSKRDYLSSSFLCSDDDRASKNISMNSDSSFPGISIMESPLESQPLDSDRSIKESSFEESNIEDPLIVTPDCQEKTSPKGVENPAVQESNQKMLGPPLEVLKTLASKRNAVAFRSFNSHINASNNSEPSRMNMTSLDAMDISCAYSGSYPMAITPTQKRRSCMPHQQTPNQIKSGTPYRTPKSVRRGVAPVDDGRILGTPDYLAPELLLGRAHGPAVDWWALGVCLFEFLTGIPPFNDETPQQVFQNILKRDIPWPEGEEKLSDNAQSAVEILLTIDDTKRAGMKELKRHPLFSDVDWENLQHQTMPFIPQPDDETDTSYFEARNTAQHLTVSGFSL
In short: as §1

T3 sequence (Q96RR4 whole entry, species assumed): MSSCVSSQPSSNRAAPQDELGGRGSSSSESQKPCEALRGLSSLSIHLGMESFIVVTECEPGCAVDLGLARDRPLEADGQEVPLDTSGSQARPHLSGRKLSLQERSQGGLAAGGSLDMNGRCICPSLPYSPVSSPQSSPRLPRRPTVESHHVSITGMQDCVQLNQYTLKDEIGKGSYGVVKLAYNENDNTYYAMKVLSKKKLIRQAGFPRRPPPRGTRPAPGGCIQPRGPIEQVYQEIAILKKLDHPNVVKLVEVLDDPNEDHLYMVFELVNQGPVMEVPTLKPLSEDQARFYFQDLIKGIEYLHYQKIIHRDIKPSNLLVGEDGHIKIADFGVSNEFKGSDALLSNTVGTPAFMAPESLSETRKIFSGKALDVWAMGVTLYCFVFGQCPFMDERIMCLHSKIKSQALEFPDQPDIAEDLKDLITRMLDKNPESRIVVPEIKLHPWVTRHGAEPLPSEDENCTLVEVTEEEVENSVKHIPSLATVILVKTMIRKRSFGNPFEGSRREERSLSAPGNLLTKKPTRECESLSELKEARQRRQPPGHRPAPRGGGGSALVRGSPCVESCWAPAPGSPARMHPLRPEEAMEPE
Chain of PKN3 (Q6P5Z2 whole entry, species assumed): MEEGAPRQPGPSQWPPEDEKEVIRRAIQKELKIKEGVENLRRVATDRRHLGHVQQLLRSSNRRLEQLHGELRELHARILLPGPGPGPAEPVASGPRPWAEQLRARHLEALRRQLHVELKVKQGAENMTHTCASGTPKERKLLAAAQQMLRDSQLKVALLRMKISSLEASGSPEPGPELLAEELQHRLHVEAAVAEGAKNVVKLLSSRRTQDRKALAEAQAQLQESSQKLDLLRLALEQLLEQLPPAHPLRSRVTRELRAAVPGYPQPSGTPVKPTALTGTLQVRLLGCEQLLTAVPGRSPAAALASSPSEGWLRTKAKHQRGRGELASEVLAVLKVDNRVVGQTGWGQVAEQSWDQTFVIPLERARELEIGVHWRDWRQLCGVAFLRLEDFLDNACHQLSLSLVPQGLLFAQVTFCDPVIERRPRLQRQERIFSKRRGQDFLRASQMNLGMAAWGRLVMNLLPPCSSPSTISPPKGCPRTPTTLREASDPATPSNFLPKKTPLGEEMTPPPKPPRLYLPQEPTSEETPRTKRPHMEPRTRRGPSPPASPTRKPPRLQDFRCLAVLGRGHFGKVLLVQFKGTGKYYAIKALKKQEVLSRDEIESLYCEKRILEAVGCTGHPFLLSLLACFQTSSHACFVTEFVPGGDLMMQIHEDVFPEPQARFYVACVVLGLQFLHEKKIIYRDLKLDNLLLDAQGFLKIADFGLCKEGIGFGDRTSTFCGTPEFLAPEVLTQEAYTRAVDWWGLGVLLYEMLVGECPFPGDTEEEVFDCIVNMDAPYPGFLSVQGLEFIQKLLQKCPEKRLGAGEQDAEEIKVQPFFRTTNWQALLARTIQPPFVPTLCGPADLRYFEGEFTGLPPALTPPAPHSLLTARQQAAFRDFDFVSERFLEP
Chain of CAMK1D (Q8IU85 whole entry): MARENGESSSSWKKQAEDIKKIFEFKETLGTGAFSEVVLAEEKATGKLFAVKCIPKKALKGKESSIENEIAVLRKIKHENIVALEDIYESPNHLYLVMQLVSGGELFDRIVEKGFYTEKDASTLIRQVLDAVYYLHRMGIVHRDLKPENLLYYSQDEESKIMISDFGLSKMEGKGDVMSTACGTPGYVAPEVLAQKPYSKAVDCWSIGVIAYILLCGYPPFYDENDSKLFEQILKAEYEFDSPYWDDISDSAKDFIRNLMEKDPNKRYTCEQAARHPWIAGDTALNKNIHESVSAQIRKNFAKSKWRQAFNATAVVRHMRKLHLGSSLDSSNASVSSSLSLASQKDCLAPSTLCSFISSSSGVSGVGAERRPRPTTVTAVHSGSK

Structure (SMILES) | inhibition at 1 µM (CAMK1D) [%] | inhibition at 1 µM (ITK) [%] | inhibition at 1 µM (MAP4K3/GLK) [%] | inhibition at 1 µM (PKN3) [%] | inhibition at 1 µM (CAMKK2) [%] | inhibition at 1 µM (MASTL) [%]
C=CC(=O)N1CCCC(c2c(F)cc(C(N)=O)c3[nH]c4c(c23)CCCCC4)C1 (single isomer, unassigned) [Compound 5-6] | 19.6 | 44.8 | -7.3 | 5.7 | 25.8 | 2.2
C=CC(=O)N1CCC[C@@H](c2c(F)cc(C(N)=O)c3[nH]c4c(c23)CCC4)C1 [Compound 10-2, (S)-8-(1-acryloylpiperidin-3-yl)-7-fluoro-1,2,3,4-tetrahydrocyclo-penta[b]indole-5-carboxamide] | 10.5 | 12.2 | 5 | 3.5 | 2.6 | -10.2
C=CC(=O)N1CCC[C@@H](c2c(F)cc(C(N)=O)c3[nH]c4c(c23)CC2(CC4)CC2)C1 [Compound 6-2, (S)-5-(1-acryloylpiperidin-3-yl)-6-fluoro-1,2,4,9-tetrahydrospiro[carbazole-3,1′-cyclopropane]-8-carboxamide] | 26.1 | 29.2 | 6.2 | -9.4 | 0.4 | -9
